Laboratory results taken from US20060128688A1, “Asenapine for the treatment of schizophrenia in a patient with overweight or predisposition for overweight” (priority 2003, published 2006).
“And” between values parts separate entries of the source, which are not always exact repeats. Equal entries are not always repeated. Where two headings read alike, the source gives them in different places. Values belong to the molecule of their own block, whether it stands above or below them.

How the values were obtained:
[1] = test system: subjects with acute exacerbation of their schizophrenic illness; test: Randomized double blind, fixed-dose 6-week trial: efficacy on disease symptoms (PANSS); assay type: in vivo, human; details: asenapine 5 mg twice a day sublingual, risperidone 3 mg twice daily, 6 weeks, compared with placebo
[2] = among atypical antipsychotics, literature review; cited from earlier work
[3] = All-Subjects-Treated Group, baseline to day 42 or final day of treatment

number of subjects with greater than 10% weight gain from baseline (All-Subjects-Treated Group): 1
subjects with clinically significant weight gain (increase from baseline of ≧7%), % [3]: 4% and 4.3%
subjects with clinically significant weight gain (increase from baseline of ≧7%), % (All-Subjects-Treated Group, baseline to day 42 or final day of treatment, listed as Asenapine): 4.3%
Compound: CN1C[C@@H]2c3ccccc3Oc3ccc(Cl)cc3[C@H]2C1 (relative stereo) [asenapine, trans-5-chloro-2-methyl-2,3,3a,12b-tetrahydro-1H-dibenz[2,3:6,7]oxepino[4,5-c]pyrrole]
efficacy in reducing the symptoms of schizophrenia [1]: significantly more effective than placebo
number of subjects (n) with clinically significant decrease of ≧7% from baseline in body weight [3]: 0
number of subjects (n) with clinically significant increase of ≧7% from baseline in body weight [3]: 2
subjects with clinically significant decrease of ≧7% from baseline in body weight, % [3]: 0.0%
increase in body weight from baseline (at end point, group result): 0.5%
other side effects (overall conclusion of the 6-week trial): minimal other side effects

Compound: OCCOCCN1CCN(C2=Nc3ccccc3Sc3ccccc32)CC1 [quetiapine]
weight gain associated with the drug [2]: smallest

Compound: O=C1Cc2cc(CCN3CCN(c4nsc5ccccc45)CC3)c(Cl)cc2N1 [ziprasidone]
weight gain associated with the drug [2]: smallest

Compound: Cc1nc2n(c(=O)c1CCN1CCC(c3noc4cc(F)ccc34)CC1)CCCC2 [risperidone, reference compound]
efficacy in reducing the symptoms of schizophrenia [1]: significantly more effective than placebo
number of subjects with greater than 10% weight gain from baseline (All-Subjects-Treated Group): 2
number of subjects (n) with clinically significant decrease of ≧7% from baseline in body weight [3]: 1
number of subjects (n) with clinically significant increase of ≧7% from baseline in body weight [3]: 8
weight gain associated with the drug [2]: modest weight changes that are not dose related

Compound: Cc1cc2c(s1)Nc1ccccc1N=C2N1CCN(C)CC1 [olanzapine]
weight gain associated with the drug [2]: largest weight gains
